Experimental data as given in publication PMC5316935, “Mangiferin from Pueraria tuberosa reduces inflammation via inactivation of NLRP3 inflammasome” (Scientific Reports, 2017).

Tested on: T1, COX-2
T1 construct: gene Ptgs2
Assay: chromogenic TMPD oxidation assay of COX-2 activity; RAW […] cells per figure legend
Assay type: biochemical

`O=c1c2cc(O)c(O)cc2oc2cc(O)c([C@@H]3O[C@H](CO)[C@@H](O)[C@H](O)[C@H]3O)c(O)c12` [PT-Mangiferin, Mangiferin] gave an IC50 of 40 µM.
